Laboratory results reported in patent publication US20220411378A1, “SMALL MOLECULES POLYMERASE INHIBITORS” (GEORGIA STATE UNIVERSITY RESEARCH FOUNDATION, INC., priority 2019, published 2022).
Entries after “also recorded” stand apart in the source; their conditions may differ. Read-outs that look alike come from different tables or passages of the source.

How the values were obtained:
[1] = tested on: MeV L with resistance mutations (LS869P, LI1009F, LY1106S, LS869P/Y942H); assay type: binding
[2] = tested on: clinical isolates HPIV3-9R4 and HPIV3-10L3; experiment: microbe, parasite or virus in culture; assay type: cell-based
HPIV3-JS RdRP = assay type: cell-based
SeV [3] = assay type: cell-based
HPIV1 isolate 5F6 = experiment: organism not typed; assay type: cell-based
RSV-derived minigenome = RSV-derived minigenome (Human respiratory syncytial virus A, UniProt P28887); assay type: cell-based
SeV [4] = tested on: SeV; parameters: species or system mice; details: mouse, in vivo
[5] = tested on: HPIV3 primary transcription; assay type: cell-based
RSV = assay type: cell-based
[6] = Stability in mouse liver microsomes; assay type: in vitro ADME
Experimental: (§1) To determine stability in plasma, GHP-88309 was incubated in triplicate in pooled human or CD-1 mouse plasma (BioIVT) in glass tubes in a 37° C. shaker-incubator (150 rpm). Procaine and benfluorex served as positive controls and were analyzed in parallel. […] To determine stability in liver microsomes, GHP-88309 was incubated in triplicate in glass tubes in 50 mM Tris-HCl (pH 7.5) buffer with 8 mM MgCl2, 25 μg/mL alamethicin, Phase I and Phase II cofactors (NADPH regenerating system (NRS) and 2 mM UDPGA, respectively) and 0.5 mg total protein pooled mixed gender human liver microsomes (BioIVT) or pooled CD-1 mouse liver microsomes (Xenotech) in a 37° C. shaker incubator (150 rpm). Verapamil served as Phase I positive control, negative controls lacked cofactors and contained 2% (w/v) NaHCO3 in water instead of NRS. Aliquots were taken after 0, 15, […], 30, 60 and 120 minutes and processed as outlined above.

HPIV3 = experiment: microbe, parasite or virus in culture; assay type: cell-based
recHPIV3-JS-NanoLuc = experiment: microbe, parasite or virus in culture; assay type: cell-based
[7] = tested on: MeV primary transcription; assay type: cell-based
in vitro [8] = assay type: in vitro ADME; details: plasma
Experimental: as §1

influenza A viruses = assay type: cell-based
in vitro [9] = details: African green monkey
purified MeV L (L1708) = purified MeV L (L1708) (Measles virus, UniProt Q9WMB3); experiment: biochemical; assay type: binding
in vitro [10] = details: human
[11] = tested on: canine distemper virus (CDV); assay type: cell-based
MeV-Edm RdRP = MeV-Edm RdRP (Measles virus, UniProt P12576); assay type: cell-based
[12] = Stability in human liver microsomes; assay type: in vitro ADME
Experimental: as §1

[13] = Pharmacokinetics analysis in mice; assay type: in vivo
[14] = tested on: different immortalized cell lines; experiment: Cell proliferation / cytotoxicity in cultured immortalized cell lines; assay type: cell-based
[15] = tested on: clinical isolates of HPIV3; assay type: cell-based
NiV L = NiV L (Nipah virus, UniProt Q997F0); experiment: cell-based
CDV-Onderstepoort RdRP = CDV-Onderstepoort RdRP (Canine distemper virus, UniProt P24658); assay type: cell-based
HPIV1 = assay type: cell-based
HPIV2 = assay type: cell-based
MeV = assay type: cell-based
[16] = target: purified MeV P-L proteins (Measles virus, UniProt Q9WMB3); assay type: biochemical
HPIV3-infected HBTECs = assay type: cell-based, human

NC(=O)c1c(F)cccc1-c1cccc2cnccc12 [GHP-88309, 2-fluoro-6-(5-isoquinolyl)benzamide]
binding [1]: drastically reduced | EC50 ([2]; Human respirovirus 3, HPIV3-9R4 on HBTEC cultures): 0.07 µM | EC50 ([2]; Human respirovirus 3, HPIV3-10L3 on HBTEC cultures): 0.08 µM | inhibition of viral RdRP activity (HPIV3-JS RdRP): specific inhibition | inhibitory activity (SeV [3]): Inhibitory activity | EC50 (HPIV1 isolate 5F6): 0.28 µM | inhibition of viral RdRP activity (RSV-derived minigenome): not affected | IFN-β induction in lung tissue (SeV [4]): significantly lower | IL12b expression in lung tissue (SeV [4]): increased | body temperature (SeV [4]): prevented hypothermia | body weight (SeV [4]): alleviated body weight losses | clinical signs (SeV [4]): significantly alleviated | expression of inflammatory markers (IL-6, TNF, Acod1) (SeV [4]): significantly decreased | humoral anti-SeV response of recoverees (SeV [4]): robust humoral anti-SeV response | lung histopathology (SeV [4]): no statistically significant (P=0.62) pathological changes | lung inflammation and cellular infiltrates (SeV [4]): alleviated | outcome of rechallenge (SeV [4]): complete survival without development of clinical signs | survival (SeV [4]): All treated animals survived; also recorded: complete protection | survival after primary infection (SeV [4]): all animals survived | virus load in lungs (SeV [4]): significantly reduced | virus load in trachea (SeV [4]): significantly reduced | viral mRNA amounts during primary transcription [5]: dose-dependent reduction | inhibitory activity (RSV): not inhibited | TEER and tight junction organization (3D-ALI-HBTEC): unchanged | half-life ([6]; CD-1, mouse, pooled CD-1 mouse liver microsomes, pH 7.5, mouse liver microsomes, read-out: half-life (t1/2)): > 15 h | half-life (t1/2) ([6]; mouse liver microsomes): > 24 h | EC50 (HPIV3): 0.105 µM | sterilizing concentration in the basolateral chamber (HPIV3): 10 µM | EC50 (HPIV3; Human respirovirus 3): 0.09 µM | EC50 (recHPIV3-JS-NanoLuc): 0.59 to 1.16 µM | EC50 (recHPIV3-JS-NanoLuc; Human respirovirus 3): < 1 µM | EC50 (recHPIV3-JS-NanoLuc; Human respirovirus 3, read-out: active concentrations against recHPIV3-JS-NanoLuc): 0.4 to 0.78 µM | viral mRNA amounts during primary transcription [7]: dose-dependent reduction | half-life (in vitro [8]; CD-1, mouse): > 15 h | half-life (in vitro [8]; human): > 15 h | inhibitory activity (influenza A viruses): not inhibited | CC50 (in vitro [9]): > 20 µM | Kd (purified MeV L (L1708)): 6.2 µM | difference between EC50 and KD concentrations (purified MeV L (L1708)): ~10 fold | CC50 (in vitro [10]): 1000 µM | inhibitory activity [11]: Inhibitory activity | inhibition of viral RdRP activity (MeV-Edm RdRP): specific inhibition | half-life ([12]; both sexes, human, pooled human liver microsomes, pH 7.5, human liver microsomes, read-out: half-life (t1/2)): > 15 h | half-life (t1/2) ([12]; human liver microsomes): 15.3 h | effect of multi-day dosing on PK properties ([13]; 150 mg/kg oral, single vs multi dosing): did not significantly (P>0.82) alter | tolerability ([13]; 5-day multi-dose oral, b.i.d. 150 mg/kg): well tolerated; also recorded: no signs of biotoxicity | organ concentrations ([13]; all soft tissues incl. lung, 60 minutes after plasma Cmax, single oral 150 mg/kg): 70 to 246 nmol/g | concentration at 11.5 h ([13]; female, 129x1/SvJ, mouse, plasma, 150 mg/kg oral b.i.d., 4-day treatment period, read-out: drug plasma concentration at trough): ~34 µM | bioavailability ([13]; female, 129x1/SvJ, mouse, plasma, single-dose oral vs i.v.): ~90% | sustained drug plasma concentrations ([13]; single oral dose 150 mg/kg): > 30 µM | effect on cell proliferation ([14]; concentration range up to 100 μM): No toxicity was detectable | cytotoxicity ([14]; multi-day incubation, up to 1 mM, infected cells highest 300 μM): no cytotoxicity | potency (EC50) against clinical isolates [15]: low-micromolar to submicromolar | EC50 (NiV L): 314 µM | inhibition of viral RdRP activity (CDV-Onderstepoort RdRP): specific inhibition | inhibitory activity (HPIV1): Inhibitory activity | potency (EC50) against clinical isolates (HPIV1): low-micromolar to submicromolar | inhibitory activity (HPIV2): not inhibited | inhibitory activity (MeV): Inhibitory activity | potency (EC50) against clinical isolates (MeV): low-micromolar to submicromolar | RNA elongation (3′ extension) after back-priming [16]: does not block; also recorded: did not block RNA elongation | de novo RNA synthesis (initiation at the promoter) [16]: inhibits; also recorded: dose-dependent inhibition | IFN-β levels (HPIV3-infected HBTECs): did not reduce | ISG expression (HPIV3-infected HBTECs): enhanced
